Values after ≈ are worked out from the molar mass of the structure shown.
What was measured:
Assay type in all cases: functional
Nakaseomyces glabratus = experiment: Minimum inhibitory concentration required to inhibit 90 to 100% visible growth of Candida glabrata
Candida albicans = experiment: Minimum inhibitory concentration to inhibit 90 to 100% visible growth of Candida albicans
[1] = In vitro therapeutic index (calculated as CC50/MIC (Candida albicans)).
HEp-2 = experiment: In vitro cytotoxic concentration against Hep2 cells.; settings: Homo sapiens

MIC (Nakaseomyces glabratus) [µg/mL]	MIC (Candida albicans) [µg/mL]	SMILES	Therapeutic index [1]	CC50 (HEp-2) [µg/mL]
8 (≈ 17.5 µM)	< 0.06	C=CCCCCC(=O)OCCC12CC3C(CC[C@H]3C)C3(C=O)CC1C=C(C(C)C)C32C(=O)O (some centres undefined)	–	–
8 (≈ 18.4 µM)	16 (≈ 36.8 µM)	CC(C)C1=CC2CC3(C=O)[C@@H]4CC[C@@H](C)[C@H]4CC2(C(=O)CCc2ccccc2)[C@]13C(=O)O	–	–
4 (≈ 9.65 µM)	0.25 (≈ 0.603 µM)	CCCCCCC(=O)C12C[C@@H]3[C@H](C)CC[C@H]3C3(C=O)CC1C=C(C(C)C)[C@@]23C(=O)O	6	1.5 (≈ 3.62 µM)
> 128	> 128	CC(C)C1=CC2CC3(C=O)C4CC[C@@H](C)C4CC2(CCOC(=O)c2nccc4ccccc24)C13C(=O)O (some centres undefined)	–	–
> 128	8 (≈ 16.8 µM)	CC(C)C1=CC2CC3(C=O)C4CC[C@@H](C)C4CC2(CCOC(=O)c2ccc(C#N)cc2)C13C(=O)O (some centres undefined)	–	–
16 (≈ 36.5 µM)	1 (≈ 2.28 µM)	CC(C)C1=CC2CC3(C=O)[C@@H]4CC[C@@H](C)[C@H]4CC2(C(O)C#CCC2CCCC2)[C@]13C(=O)O (some centres undefined)	14.2	14.2 (≈ 32.4 µM)
> 128	4 (≈ 8.39 µM)	C=Cc1ccc(C(=O)OCCC23CC4C(CC[C@H]4C)C4(C=O)CC2C=C(C(C)C)C43C(=O)O)cc1 (some centres undefined)	–	–
16 (≈ 37.2 µM)	> 128	CC(C)C1=CC2CC3(C=O)[C@@H]4CC[C@@H](C)[C@H]4CC2(C(=O)C#Cc2ccccc2)[C@]13C(=O)O	0.09	> 12
> 128	–	CC(C)C1=CC2CC3(C=O)C4CC[C@@H](C)C4CC2(CCOC(=O)Cc2c[nH]c4ccccc24)C13C(=O)O (some centres undefined)	–	–
> 128	2 (≈ 4.03 µM)	CSc1ccc(C(=O)OCCC23CC4C(CC[C@H]4C)C4(C=O)CC2C=C(C(C)C)C43C(=O)O)cc1 (some centres undefined)	–	–
> 128	2 (≈ 4.04 µM)	CC(C)C1=CC2CC3(C=O)C4CC[C@@H](C)C4CC2(CCOC(=O)c2ccc4c(c2)OCO4)C13C(=O)O (some centres undefined)	–	–
4 (≈ 9.04 µM)	0.125 (≈ 0.282 µM)	CC(C)C1=CC2CC3(C=O)C4CC[C@@H](C)C4CC2(CCOC(=O)C2CCCC2)C13C(=O)O (some centres undefined)	–	–
8 (≈ 18.7 µM)	0.5 (≈ 1.17 µM)	CC(C)C1=CC2CC3(C=O)C4CC[C@@H](C)C4CC2(CCOC(=O)C2CCC2)C13C(=O)O (some centres undefined)	–	–
> 128	1 (≈ 2.1 µM)	CC(C)C1=CC2CC3(C=O)C4CC[C@@H](C)C4CC2(CCOC(=O)c2cccc(C#N)c2)C13C(=O)O (some centres undefined)	–	–
64 (≈ 141 µM)	2 (≈ 4.4 µM)	CC(C)C1=CC2CC3(C=O)C4CC[C@@H](C)C4CC2(CCOC(=O)Cc2ccco2)C13C(=O)O (some centres undefined)	–	–
> 128	4 (≈ 7.97 µM)	CC(C)C1=CC2CC3(C=O)C4CC[C@@H](C)C4CC2(CCOC(=O)c2cnc4ccccc4c2)C13C(=O)O (some centres undefined)	–	–

MIC (Nakaseomyces glabratus) [µg/mL]	MIC (Candida albicans) [µg/mL]	SMILES	Therapeutic index [1]	CC50 (HEp-2) [µg/mL]
> 128	8 (≈ 18 µM)	CC(=O)CCC(=O)OCCC12CC3C(CC[C@H]3C)C3(C=O)CC1C=C(C(C)C)C32C(=O)O (some centres undefined)	–	–
> 128	1 (≈ 1.97 µM)	CC(C)C1=CC2CC3(C=O)C4CC[C@@H](C)C4CC2(CCOC(=O)Cc2ccc(N(C)C)cc2)C13C(=O)O (some centres undefined)	–	–
> 128	16 (≈ 35.4 µM)	CC(C)C1=CC2CC3(C=O)C4CC[C@@H](C)C4CC2(CCOC(=O)c2cccnc2)C13C(=O)O (some centres undefined)	–	–
> 128	> 128	CC(=O)OCC(=O)OCCC12CC3C(CC[C@H]3C)C3(C=O)CC1C=C(C(C)C)C32C(=O)O (some centres undefined)	–	–
4 (≈ 9 µM)	< 0.06	CC(C)C1=CC2CC3(C=O)C4CC[C@@H](C)C4CC2(CCOC(=O)CC(C)(C)C)C13C(=O)O (some centres undefined)	–	–
> 128	> 128	CC(C)C1=CC2CC3(C=O)C4CC[C@@H](C)C4CC2(CCOC(=O)CCN2CCCCC2)C13C(=O)O (some centres undefined)	–	–
> 128	> 128	CC(C)C1=CC2CC3(C=O)[C@@H]4CC[C@@H](C)[C@H]4CC2(C(=O)C#CC(C)(C)C)[C@]13C(=O)O	–	–
> 128	4 (≈ 8.54 µM)	CC(C)C1=CC2CC3(C=O)C4CC[C@@H](C)C4CC2(CCOC(=O)c2ccc(F)cc2)C13C(=O)O (some centres undefined)	–	–
> 128	> 128	CC(C)C1=CC2CC3(C=O)C4CC[C@@H](C)C4CC2(CCOC(=O)c2ccc(S(N)(=O)=O)cc2)C13C(=O)O (some centres undefined)	–	–
> 128	> 128	CCCCCCCCCCCCCCCCC(=O)C12C[C@@H]3[C@H](C)CC[C@H]3C3(C=O)CC1C=C(C(C)C)[C@@]23C(=O)O	–	–
> 128	< 128	CC(C)C1=CC2CC3(C=O)C4CC[C@@H](C)C4CC2(CCOC(=O)CCC(=O)O)C13C(=O)O (some centres undefined)	–	–
> 128	4 (≈ 8.23 µM)	CC(C)C1=CC2CC3(C=O)C4CC[C@@H](C)C4CC2(CCOC(=O)c2ccc(Cl)nc2)C13C(=O)O (some centres undefined)	–	–
> 128	> 128	CC(C)C1=CC2CC3(C=O)C4CC[C@@H](C)C4CC2(CCO)C13C(=O)O (some centres undefined)	–	–
32 (≈ 64.4 µM)	0.5 (≈ 1.01 µM)	CC(C)C1=CC2CC3(C=O)C4CC[C@@H](C)C4CC2(CCOC(=O)CSc2ccccc2)C13C(=O)O (some centres undefined)	–	–
> 128	8 (≈ 14.3 µM)	CC(C)C1=CC2CC3(C=O)C4CC[C@@H](C)C4CC2(CCOC(=O)C2CCN(C(=O)OC(C)(C)C)CC2)C13C(=O)O (some centres undefined)	–	–
8 (≈ 18.5 µM)	0.25 (≈ 0.578 µM)	CC(C)C1=CC2CC3(C=O)[C@@H]4CC[C@@H](C)[C@H]4CC2(C(O)C#Cc2ccccc2)[C@]13C(=O)O (some centres undefined)	–	–

— ChEMBL document CHEMBL1136564, “Sordaricin antifungal agents” (2003)
